Two compounds from ChEMBL document CHEMBL3045026, “Cytotoxic clerodane diterpenes from Glossocarya calcicola” (Phytochemistry, 2005) can be followed below.

Values after ≈ are worked out from the molar mass of the structure shown.

The nature of assay [1]: Cytotoxicity against Drosophila melanogaster D.mel-2 cells. The class given is functional, cell-based.
The test system of assay [2] is HepG2. Kind of assay: Cytotoxicity against Homo sapiens (human) HepG2 cells. Format: functional, cell-based.

Take `C=C1CC[C@@H](OC(=O)C(C)C)[C@H]2[C@@]1(C)[C@@H](O)C(=O)C(=C)[C@]2(C)C[C@@H](OC(=O)/C(C)=C/C)[C@]1(O)COC(=O)C1` (relative stereo): the half-maximal inhibitory concentration (IC50) (commonly the concentration that gives 50% inhibition) in assay [1] worked out at 9.04 µg/mL (≈ 17 µM); in assay [2], 2.06 µg/mL (≈ 3.87 µM).
In the case of `C=C1CC[C@@H](OC(=O)C(C)CC)[C@H]2[C@@]1(C)[C@@H](O)C(=O)C(=C)[C@]2(C)C[C@@H](OC(=O)/C(C)=C/C)[C@]1(O)COC(=O)C1` (relative stereo), the IC50 in assay [1] was 8.3 µg/mL (≈ 15.2 µM); in assay [2], 2.1 µg/mL (≈ 3.84 µM).
